Assay results published in patent US5250518A, “O-methyl derivatives of azithromycin A” (priority 1990, dated 1993).
≈ marks a conversion by molar mass, not a printed value.

Columns and labels:
[1] = system: Klebsiella pneumoniae NCTC-10499; test: Antibacterial in vitro activity, tube dilution method (Table 1); type: cell-based; settings: NCTC10499, Brain hearth bouillon, 24 hours, 37° C.
Procedure: (§1) O-methyl derivatives of azithromycin A of the formulae (Ii)-(Il) and their pharmaceutically acceptable addition salts have a potent antimicrobial activity. The preliminary antibacterial in vitro activity of 6-O-methyl-azithromycin A (Ii) was determined on a series of gram-positiveand gram-negative test bacteria and clinical isolates in comparison with erythromycin A. The assessment was performed by the "tube dilution" method. In the investigation there were used 24-hours cultures in "brain hearth bouillon" of standard strains and freshly isolated strains from a clinical sample.
(§2) Substrate: Brain hearth bouillon
(§3) Incubation: 24 hours, 37° C.
(§4) MIC: Minimal Inhibitory Concentration (μg/mL)
(§5) MBC: Minimal Bactericidal Concentration (μg/mL)

[2] = system: Pseudomonas aeruginosa NCTC-10490; test: as above; type: cell-based; settings: NCTC10490, Brain hearth bouillon, 24 hours, 37° C.
Procedure: as §1, §2, §3, §4, §5

[3] = system: Staphilococcus aureus ATCC 6538-P; test: as above; type: cell-based; settings: Brain hearth bouillon, 24 hours, 37° C.
Procedure: as §1, §2, §3, §4, §5

[4] = system: Streptococcus faecalis ATCC-8043; test: as above; type: cell-based; settings: Enterococcus faecalis, ATCC8043, Brain hearth bouillon, 24 hours, 37° C.
Procedure: as §1, §2, §3, §4, §5

[5] = system: Escherichia coli ATCC 10536; test: as above; type: cell-based; settings: ATCC10536, Brain hearth bouillon, 24 hours, 37° C.
Procedure: as §1, with “The” for “O-methyl derivatives of azithromycin A of the formulae (Ii)-(Il) and their pharmaceutically acceptable addition salts have a potent antimicrobial activity. The”

[6] = system: Sarcina lutea ATCC-9341; test: as above; type: cell-based; settings: Micrococcus luteus, ATCC9341, Brain hearth bouillon, 24 hours, 37° C.
Procedure: as §1, with “The” for “O-methyl derivatives of azithromycin A of the formulae (Ii)-(Il) and their pharmaceutically acceptable addition salts have a potent antimicrobial activity. The”

[7] = system: Haemophylus influenzae 4028; test: Antibacterial in vitro activity against clinical isolates, tube dilution method (Table 2); type: cell-based; settings: clinical isolate, Brain hearth bouillon, 24 hours, 37° C.
Procedure: as §1, §2, §3, §4
(§6) MBC: Minimal Bactericidal Concentation (μg/mL)

[8] = system: Staphylococcus aureus 10097; test: as above; type: cell-based; settings: clinical isolate, Brain hearth bouillon, 24 hours, 37° C.
Procedure: as §1, §2, §3, §4, §6

[9] = system: Staphylococcus aureus 10099; test: as above; type: cell-based; settings: clinical isolate, Brain hearth bouillon, 24 hours, 37° C.
Procedure: as §1, §2, §3, §4, §6

[10] = system: Staphylococcus saprophyticus 3947; test: as above; type: cell-based; settings: clinical isolate, Brain hearth bouillon, 24 hours, 37° C.
Procedure: as §1, §2, §3, §4, §6

[11] = system: Streptococcus faecalis 10390; test: as above; type: cell-based; settings: Enterococcus faecalis, clinical isolate, Brain hearth bouillon, 24 hours, 37° C.
Procedure: as §1, §2, §3, §4, §6

[12] = system: Streptococcus pneumoniae 4050; test: as above; type: cell-based; settings: clinical isolate, Brain hearth bouillon, 24 hours, 37° C.
Procedure: as §1, §2, §3, §4, §6

[13] = system: ATCC 6538P; test: Antibacterial in vitro activity in comparison with azithromycin (Table 3); type: cell-based, Staphilococcus aureus; settings: for MIC: Brain hearth Bouillon, 24-48 hours, 37° C., inoculum 10^-5 -10^-6 cfu/mL, read-out: MIC
Text: (§7) In Table 3 there are represented in vitro tests of 6-O-methyl- (Ii), 6,11-di-O-methyl- (Ij), 11-O-methyl- (Ik) and 6,11,4"-tri-O-methyl-azithromycin A (II) in comparison with azithromycin.

[14] = system: ATCC 10240; test: as above; type: cell-based; settings: Brain hearth Bouillon, 24-48 hours, 37° C., inoculum 10^-5 -10^-6 cfu/mL
Text: as §7

[15] = system: ATCC 8043; test: as above; type: cell-based; settings: Staphylococcus faecalis, ATCC8043; Brain hearth Bouillon, 24-48 hours, 37° C., inoculum 10^-5 -10^-6 cfu/mL
Text: as §7

[16] = system: Bacillus cereus NCTC 10320; test: as above; type: cell-based; settings: NCTC10320, Brain hearth Bouillon, 24-48 hours, 37° C., inoculum 10^-5 -10^-6 cfu/mL
Text: as §7

[17] = system: Bacillus pumilus NCTC 8241; test: as above; type: cell-based; settings: NCTC8241, Brain hearth Bouillon, 24-48 hours, 37° C., inoculum 10^-5 -10^-6 cfu/mL
Text: as §7

[18] = system: Bacillus subtilis NCTC 8241; test: as above; type: cell-based; settings: for MIC: Bacillus subtilis, NCTC8241, Brain hearth Bouillon, 24-48 hours, 37° C., inoculum 10^-5 -10^-6 cfu/mL
Text: as §7

[19] = system: Corynebacterium xerosis NCTC 9755; test: as above; type: cell-based; settings: NCTC9755, Brain hearth Bouillon, 24-48 hours, 37° C., inoculum 10^-5 -10^-6 cfu/mL
Text: as §7

[20] = system: Escherichia coli ATCC 10536; test: as above; type: cell-based; settings: ATCC10536, Brain hearth Bouillon, 24-48 hours, 37° C., inoculum 10^-5 -10^-6 cfu/mL
Text: as §7

[21] = system: Pseudomonas aeruginosa NCTC 10490; test: as above; type: cell-based; settings: NCTC10490, Brain hearth Bouillon, 24-48 hours, 37° C., inoculum 10^-5 -10^-6 cfu/mL
Text: as §7

[22] = system: Sarcina lutea ATCC 9341; test: as above; type: cell-based; settings: for MIC: Micrococcus luteus, ATCC9341, Brain hearth Bouillon, 24-48 hours, 37° C., inoculum 10^-5 -10^-6 cfu/mL
Text: as §7

[23] = system: Staphylococcus epidermidis ATCC 12228; test: as above; type: cell-based; settings: ATCC12228, Brain hearth Bouillon, 24-48 hours, 37° C., inoculum 10^-5 -10^-6 cfu/mL
Text: as §7

[24] = system: gram-positive and gram-negative test bacteria and clinical isolates; test: Preliminary antibacterial in vitro activity, tube dilution method (Tables 1 and 2, summary); type: cell-based; settings: versus erythromycin A
Procedure: as §1

[25] = Biological activity (1 mg contains μg of azithromycin); settings: per 1 mg of (Ii)
[26] = system: standard bacterial strains; test: In vitro activity on the series of standard bacterial strains (Table 3, summary); type: cell-based; settings: versus azithromycin
Procedure: In Table 3 there are represented in vitro tests of 6-O-methyl- (Ii), 6,11-di-O-methyl- (Ij), 11-O-methyl- (Ik) and 6,11,4"-tri-O-methyl-azithromycin A (II) in comparison with azithromycin. […] Namely, the majority of the investigated bacterial strains was 2 to 4 times more sensitive in comparison with the parent antibiotic.
Substrate: Brain hearth Bouillon
Incubation: 24-48 hours, 37° C.
Inocculum; 10^-5 -10^-6 cfu/mL

[27] = read-out: MBC (Minimal Bactericidal Concentration)
[28] = read-out: MIC (Minimal Inhibitory Concentration)
[29] = read-out: MBC (Minimal Bactericidal Concentation)

## CC[C@H]1OC(=O)[C@H](C)[C@@H](O[C@H]2C[C@@](C)(OC)[C@@H](O)[C@H](C)O2)[C@H](C)[C@@H](O[C@@H]2O[C@H](C)C[C@H](N(C)C)[C@H]2O)[C@](C)(OC)C[C@@H](C)CN(C)[C@H](C)[C@@H](O)[C@]1(C)O [Ii, 6-O-Methyl-azithromycin A]
[1]; [27]
  MBC: 50 µg/mL (≈ 65.5 µM)
[1]; [28]
  MIC: 12.5 µg/mL (≈ 16.4 µM)
[2]; [27]
  MBC: > 50 µg/mL
[2]; [28]
  MIC: > 50 µg/mL
[3]; [27]
  MBC: 0.4 µg/mL (≈ 0.524 µM)
[3]; [28]
  MIC: 0.2 µg/mL (≈ 0.262 µM)
[4]; [27]
  MBC: 0.4 µg/mL (≈ 0.524 µM)
[4]; [28]
  MIC: 0.2 µg/mL (≈ 0.262 µM)
[5]; [27]
  MBC: 3.2 µg/mL (≈ 4.19 µM)
[5]; [28]
  MIC: 1.6 µg/mL (≈ 2.1 µM)
[6]; [27]
  MBC: 0.2 µg/mL (≈ 0.262 µM)
[6]; [28]
  MIC: 0.1 µg/mL (≈ 0.131 µM)
[7]; [29]
  MBC: 0.2 µg/mL (≈ 0.262 µM)
[7]; [28]
  MIC: 0.05 µg/mL (≈ 0.0655 µM)
[8]; [29]
  MBC: 0.4 µg/mL (≈ 0.524 µM)
[8]; [28]
  MIC: 0.05 µg/mL (≈ 0.0655 µM)
[9]; [29]
  MBC: 0.1 µg/mL (≈ 0.131 µM)
[9]; [28]
  MIC: 0.05 µg/mL (≈ 0.0655 µM)
[10]; [29]
  MBC: 0.8 µg/mL (≈ 1.05 µM)
[10]; [28]
  MIC: 0.4 µg/mL (≈ 0.524 µM)
[11]; [29]
  MBC: 3.1 µg/mL (≈ 4.06 µM)
[11]; [28]
  MIC: 0.8 µg/mL (≈ 1.05 µM)
[12]; [29]
  MBC: 0.1 µg/mL (≈ 0.131 µM)
[12]; [28]
  MIC: 0.025 µg/mL (≈ 0.0328 µM)
[13]
  MIC: 0.39 µg/mL (≈ 0.511 µM)
[13]; printed as Micrococcus flavus ATCC 6538 P, versus azithromycin
  activity with respect to azithromycin (from MIC): four times as active
[14]
  MIC: 0.79 µg/mL (≈ 1.04 µM)
[15]
  MIC: 0.05 µg/mL (≈ 0.0655 µM)
[16]
  MIC: 0.78 µg/mL (≈ 1.02 µM)
[17]
  MIC: 0.2 µg/mL (≈ 0.262 µM)
[18]; Bacillus subtilis NCTC 8241, versus azithromycin
  activity with respect to azithromycin (from MIC): twice as active
[18]
  MIC: 0.2 µg/mL (≈ 0.262 µM)
[19]
  MIC: 12.5 µg/mL (≈ 16.4 µM)
[20]
  MIC: 3.12 µg/mL (≈ 4.1 µM)
[21]
  MIC: 100 µg/mL (≈ 131 µM)
[22]
  MIC: 0.0125 µg/mL (≈ 0.0164 µM)
[22]; Sarcina lutea ATCC 9341, versus azithromycin
  activity with respect to azithromycin (from MIC): twice as active
[23]
  MIC: 0.1 µg/mL (≈ 0.131 µM)
[24]
  activity on the investigated strains in comparison with erythromycin A, in words: somewhat improved activity
[25]
  Biological activity: 1 mg contains azithromycin: 754 μg

## CC[C@H]1OC(=O)[C@H](C)[C@@H](O[C@H]2C[C@@](C)(OC)[C@@H](O)[C@H](C)O2)[C@H](C)[C@@H](O[C@@H]2O[C@H](C)C[C@H](N(C)C)[C@H]2O)[C@](C)(O)C[C@@H](C)CN(C)[C@H](C)[C@@H](OC)[C@]1(C)O [Ik, 11-O-Methyl-azithromycin A]
[13]
  MIC: 0.2 µg/mL (≈ 0.262 µM)
[14]
  MIC: 0.1 µg/mL (≈ 0.131 µM)
[15]
  MIC: 0.05 µg/mL (≈ 0.0655 µM)
[16]
  MIC: 0.1 µg/mL (≈ 0.131 µM)
[17]
  MIC: 0.05 µg/mL (≈ 0.0655 µM)
[18]
  MIC: 0.1 µg/mL (≈ 0.131 µM)
[19]
  MIC: 1.56 µg/mL (≈ 2.04 µM)
[20]
  MIC: 0.78 µg/mL (≈ 1.02 µM)
[21]
  MIC: 25 µg/mL (≈ 32.8 µM)
[22]
  MIC: 0.0125 µg/mL (≈ 0.0164 µM)
[23]
  MIC: 0.1 µg/mL (≈ 0.131 µM)
[26]
  activity in comparison with azithromycin, in words: significantly higher activity
